Test results: patent publication US8697739B2, “Bicyclic acetyl-CoA carboxylase inhibitors and uses thereof” (Novartis AG, priority 2010, dated 2014)

Molecular target: T1, human acetyl-CoA carboxylase 2 (ACC2) (Homo sapiens, UniProt O00763)
T1 construct: The cDNA encoding amino acids 144 to 2458 of human acetyl-CoA carboxylase 2; made in house; host or cells: Sf9 insect cells (baculovirus, pFastBac1)
Test: Acetyl-CoA carboxylase enzyme assay (malonyl-CoA formation by LC/MS/MS)
Assay type: biochemical
Conditions: IC50 ACC2, recombinant human ACC2 (aa 144-2458)
Method in brief: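 Malonyl-CoA formation was read by LC/MS/MS MRM against a [13C3]-malonyl-CoA internal standard, after acetic acid quench. The enzyme was baculovirus/Sf9-expressed human ACC2 residues 144–2458, given 15 minutes room-temperature compound preincubation in HEPES pH 7.5 buffer with MgCl2, citrate and DTT. Substrate solution held 50 μM acetyl-CoA, 120 μM ATP and 2 mM KHCO3.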

T1 sequence (O00763 144-2458): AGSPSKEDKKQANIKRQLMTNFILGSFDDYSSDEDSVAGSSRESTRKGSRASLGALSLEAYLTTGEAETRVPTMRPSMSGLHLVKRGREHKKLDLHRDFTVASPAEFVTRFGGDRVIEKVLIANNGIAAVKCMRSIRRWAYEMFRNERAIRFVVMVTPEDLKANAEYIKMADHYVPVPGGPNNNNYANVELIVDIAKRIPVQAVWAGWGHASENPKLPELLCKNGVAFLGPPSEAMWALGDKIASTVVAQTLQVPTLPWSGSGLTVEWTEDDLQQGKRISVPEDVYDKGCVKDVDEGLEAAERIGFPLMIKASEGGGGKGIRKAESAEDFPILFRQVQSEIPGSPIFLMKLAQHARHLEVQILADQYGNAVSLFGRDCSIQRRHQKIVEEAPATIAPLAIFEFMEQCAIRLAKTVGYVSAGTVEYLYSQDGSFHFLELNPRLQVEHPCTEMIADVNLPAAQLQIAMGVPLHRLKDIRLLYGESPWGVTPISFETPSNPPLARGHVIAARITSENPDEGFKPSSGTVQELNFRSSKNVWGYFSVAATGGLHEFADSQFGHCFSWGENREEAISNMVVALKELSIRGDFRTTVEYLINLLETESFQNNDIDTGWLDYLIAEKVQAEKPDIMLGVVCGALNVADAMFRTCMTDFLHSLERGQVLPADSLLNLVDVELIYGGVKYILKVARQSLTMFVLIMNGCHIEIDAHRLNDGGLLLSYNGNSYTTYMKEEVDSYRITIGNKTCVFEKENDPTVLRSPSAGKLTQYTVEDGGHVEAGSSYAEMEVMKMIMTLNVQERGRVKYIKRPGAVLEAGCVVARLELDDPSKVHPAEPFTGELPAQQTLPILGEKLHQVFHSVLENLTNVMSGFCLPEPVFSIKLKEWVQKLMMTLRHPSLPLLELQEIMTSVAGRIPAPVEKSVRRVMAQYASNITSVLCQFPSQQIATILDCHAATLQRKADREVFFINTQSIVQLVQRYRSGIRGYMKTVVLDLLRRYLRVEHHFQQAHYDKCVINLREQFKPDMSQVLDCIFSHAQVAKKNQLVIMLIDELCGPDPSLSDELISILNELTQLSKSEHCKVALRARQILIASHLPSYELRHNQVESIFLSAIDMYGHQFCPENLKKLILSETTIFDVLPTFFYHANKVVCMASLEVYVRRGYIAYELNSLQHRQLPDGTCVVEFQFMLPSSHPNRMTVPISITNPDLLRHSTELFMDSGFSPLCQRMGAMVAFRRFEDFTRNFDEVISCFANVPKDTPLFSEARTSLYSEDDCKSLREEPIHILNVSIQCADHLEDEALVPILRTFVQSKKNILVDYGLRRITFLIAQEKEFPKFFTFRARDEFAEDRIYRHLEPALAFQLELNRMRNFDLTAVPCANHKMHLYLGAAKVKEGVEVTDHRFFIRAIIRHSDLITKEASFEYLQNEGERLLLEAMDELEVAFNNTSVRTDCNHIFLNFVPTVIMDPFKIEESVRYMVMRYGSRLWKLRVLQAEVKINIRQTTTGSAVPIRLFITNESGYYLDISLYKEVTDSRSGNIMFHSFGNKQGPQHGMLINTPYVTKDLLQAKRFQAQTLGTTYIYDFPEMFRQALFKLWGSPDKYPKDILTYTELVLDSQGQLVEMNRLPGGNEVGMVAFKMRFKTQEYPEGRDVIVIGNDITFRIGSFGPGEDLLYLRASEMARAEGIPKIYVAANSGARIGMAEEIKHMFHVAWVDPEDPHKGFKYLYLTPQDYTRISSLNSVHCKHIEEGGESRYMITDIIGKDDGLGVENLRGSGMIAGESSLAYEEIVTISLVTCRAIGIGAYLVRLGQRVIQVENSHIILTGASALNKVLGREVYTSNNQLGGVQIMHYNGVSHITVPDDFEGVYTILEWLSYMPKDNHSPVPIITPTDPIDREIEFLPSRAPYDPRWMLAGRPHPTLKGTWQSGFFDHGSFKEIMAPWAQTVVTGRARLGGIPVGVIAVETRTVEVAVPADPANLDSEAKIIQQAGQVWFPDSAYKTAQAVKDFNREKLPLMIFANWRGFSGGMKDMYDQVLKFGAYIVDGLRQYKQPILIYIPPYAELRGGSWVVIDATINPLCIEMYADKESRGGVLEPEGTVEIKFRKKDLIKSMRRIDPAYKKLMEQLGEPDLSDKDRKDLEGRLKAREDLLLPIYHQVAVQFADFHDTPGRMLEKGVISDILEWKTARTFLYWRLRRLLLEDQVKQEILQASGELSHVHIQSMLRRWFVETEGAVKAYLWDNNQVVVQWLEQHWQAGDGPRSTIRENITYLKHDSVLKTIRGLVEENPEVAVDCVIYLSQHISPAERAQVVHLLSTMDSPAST

For `O=C([C@H]1CC[C@H](NS(=O)(=O)c2ccc3[nH]c(-c4ccccc4)nc3c2)CC1)N1CCC2(CC1)OCCCO2` [Example 622, N-((1r,4r)-4-(1,5-dioxa-9-azaspiro[5.5]undecane-9-carbonyl)cyclohexyl)-2-phenyl-1H-benzo[d]imidazole-5-sulfonamide], which IC50 is on record?
The IC50 was 411 nM.

Same assay, conditions: recombinant human ACC2 (aa 144-2458); read-out: IC50 ACC2

For `O=C([C@H]1CC[C@H](NS(=O)(=O)c2ccc3[nH]c(-c4ccccc4)nc3c2)CC1)N1Cc2ccccc2C1` [Example 623, N-((1r,4r)-4-(isoindoline-2-carbonyl)cyclohexyl)-2-phenyl-1H-benzo[d]imidazole-5-sulfonamide], which IC50 is on record?
Its IC50 is 560 nM.

How did the IC50 turn out when `O=C([C@H]1CC[C@H](NS(=O)(=O)c2ccc3[nH]c(-c4ccccc4)nc3c2)CC1)N1CCC2CCCCC2C1` (stereo partly shown) [Example 624, N-((1r-4r)-4-(decahydroisoquinoline-2-carbonyl)cyclohexyl)-2-phenyl-1H-benzo[d]imidazole-5-sulfonamide] was run?
Its IC50 is 246 nM.

Which IC50 does the source give for `CCCN(CC1CC1)C(=O)[C@H]1CC[C@H](NS(=O)(=O)c2ccc3[nH]c(-c4ccccc4)nc3c2)CC1` [Example 625, (1r,4r)-N-(cyclopropylmethyl)-4-(2-phenyl-1H-benzo[d]imidole-5-sulfonamido)-N-propylcyclohexanecarboxamide] here?
Its IC50 is 80 nM.

Which IC50 does the source give for `CC1CC(C)CN(C(=O)[C@H]2CC[C@H](NS(=O)(=O)c3ccc4[nH]c(-c5ccccc5)nc4c3)CC2)C1` (stereo partly shown) [Example 626, N-((1r,4r)-4-(3,5-dimethylpiperidine-1-carbonyl)cyclohexyl)-2-phenyl-1H-benzo[d]imidazole-5-sulfonamide] here?
The IC50 was 78 nM.

With `O=C([C@H]1CC[C@H](NS(=O)(=O)c2ccc3[nH]c(-c4ccccc4)nc3c2)CC1)N1CCN(CC2CCCCC2)CC1` [Example 627, N-((1r,4r)-4-(4-(cyclohexylmethyl)piperazine-1-carbonyl)cyclohexyl)-2-phenyl-1H-benzo[d]imidazole-5-sulfonamide] as the compound, how does the IC50 read?
The IC50 was 2060 nM.

Which IC50 does the source give for `O=C(NCCc1ccccc1)[C@H]1CC[C@H](NS(=O)(=O)c2ccc3[nH]c(-c4ccccc4)nc3c2)CC1` [Example 628, (1r,4r)-N-phenethyl-4-(2-phenyl-1H-benzo[d]imidazole-5-sulfonamido)cyclohexanecarboxamide] here?
Its IC50 is 408 nM.

`CC(C)CNC(=O)[C@H]1CC[C@H](NS(=O)(=O)c2ccc3[nH]c(-c4ccccc4)nc3c2)CC1` [Example 629, (1r,4r)-N-isobutyl-4-(2-phenyl-1H-benzo[d]imidazole-5-sulfonamido)cyclohexanecarboxamide] was tested. Which IC50 did it give?
Its IC50 is 1760 nM.

`CC(C)CCNC(=O)[C@H]1CC[C@H](NS(=O)(=O)c2ccc3[nH]c(-c4ccccc4)nc3c2)CC1` [Example 630, (1r,4r)-N-isopentyl-4-(2-phenyl-1H-benzo[d]imidazole-5-sulfonamido)cyclohexanecarboxamide] was tested. Which IC50 did it give?
Its IC50 is 781 nM.

For `CN(C)CCNC(=O)[C@H]1CC[C@H](NS(=O)(=O)c2ccc3[nH]c(-c4ccccc4)nc3c2)CC1` [Example 631, (1r,4r)-N-(2-(dimethylamino)ethyl)-4-(2-phenyl-1H-benzo[d]imidazole-5-sulfonamido)cyclohexanecarboxamide], which IC50 is on record?
The IC50 was 10300 nM.

For `O=C(NC1CCCCC1)[C@H]1CC[C@H](NS(=O)(=O)c2ccc3[nH]c(-c4ccccc4)nc3c2)CC1` [Example 632, (1r,4r)-N-cyclohexyl-4-(2-phenyl-1H-benzo[d]imidazole-5-sulfonamido)cyclohexanecarboxamide], which IC50 is on record?
The IC50 was 145 nM.

For `CCCCNC(=O)[C@H]1CC[C@H](NS(=O)(=O)c2ccc3[nH]c(-c4ccccc4)nc3c2)CC1` [Example 633, (1r,4r)-N-butyl-4-(2-phenyl-1H-benzo[d]imidazole-5-sulfonamido)cyclohexanecarboxamide], which IC50 is on record?
The IC50 was 1170 nM.

For `COCCNC(=O)[C@H]1CC[C@H](NS(=O)(=O)c2ccc3[nH]c(-c4ccccc4)nc3c2)CC1` [Example 634, (1r,4r)-N-(2-methoxyethyl)-4-(2-phenyl-1H-benzo[d]imidazole-5-sulfonamido)cyclohexanecarboxamide], which IC50 is on record?
Its IC50 is 1680 nM.

With `O=C(NC1CC1)[C@H]1CC[C@H](NS(=O)(=O)c2ccc3[nH]c(-c4ccccc4)nc3c2)CC1` [Example 635, (1r,4r)-N-cyclopropyl-4-(2-phenyl-1H-benzo[d]imidazole-5-sulfonamido)cyclohexanecarboxamide] as the compound, how does the IC50 read?
Its IC50 is 256 nM.

`O=C(NC1CCCc2ccccc21)[C@H]1CC[C@H](NS(=O)(=O)c2ccc3[nH]c(-c4ccccc4)nc3c2)CC1` (stereo partly shown) [Example 636, (1r,4r)-4-(2-phenyl-1H-benzo[d]imidazole-5-sulfonamido)-N-(1,2,3,4-tetrahydronaphthalen-1-yl)cyclohexanecarboxamide] was tested. Which IC50 did it give?
The IC50 was 1720 nM.

`O=C(NCC1CC1)[C@H]1CC[C@H](NS(=O)(=O)c2ccc3[nH]c(-c4ccccc4)nc3c2)CC1` [Example 637, (1r,4r)-N-(cyclopropylmethyl)-4-(2-phenyl-1H-benzo[d]imidazole-5-sulfonamido)cyclohexanecarboxamide] was tested. Which IC50 did it give?
The IC50 was 372 nM.

`O=C(NC1Cc2ccccc2C1)[C@H]1CC[C@H](NS(=O)(=O)c2ccc3[nH]c(-c4ccccc4)nc3c2)CC1` [Example 638, (1r,4r)-N-(2,3-dihydro-1H-inden-2-yl)-4-(2-phenyl-1H-benzo[d]imidazole-5-sulfonamido)cyclohexanecarboxamide] was tested. Which IC50 did it give?
The IC50 was 125 nM.

Which IC50 does the source give for `O=C(NCC1CCCCC1)[C@H]1CC[C@H](NS(=O)(=O)c2ccc3[nH]c(-c4ccccc4)nc3c2)CC1` [Example 639, (1r,4r)-N-(cyclohexylmethyl)-4-(2-phenyl-1H-benzo[d]imidazole-5-sulfonamido)cyclohexanecarboxamide] here?
Its IC50 is 352 nM.

How did the IC50 turn out when `O=C(NCc1cccnc1)[C@H]1CC[C@H](NS(=O)(=O)c2ccc3[nH]c(-c4ccccc4)nc3c2)CC1` [Example 640, (1r,4r)-4-(2-phenyl-1H-benzo[d]imidazole-5-sulfonamido)-N-(pyridin-3-ylmethyl)cyclohexanecarboxamide] was run?
Its IC50 is 960 nM.

How did the IC50 turn out when `O=C(NCC1CCCCCC1)[C@H]1CC[C@H](NS(=O)(=O)c2ccc3[nH]c(-c4ccccc4)nc3c2)CC1` [Example 641, (1r,4r)-N-(cycloheptylmethyl)-4-(2-phenyl-1H-benzo[d]imidazole-5-sulfonamido)cyclohexanecarboxamide] was run?
Its IC50 is 276 nM.

How did the IC50 turn out when `COCCCNC(=O)[C@H]1CC[C@H](NS(=O)(=O)c2ccc3[nH]c(-c4ccccc4)nc3c2)CC1` [Example 642, (1r,4r)-N-(3-methoxypropyl)-4-(2-phenyl-1H-benzo[d]imidazole-5-sulfonamido)cyclohexanecarboxamide] was run?
Its IC50 is 1340 nM.

`O=C(NCCc1cccnc1)[C@H]1CC[C@H](NS(=O)(=O)c2ccc3[nH]c(-c4ccccc4)nc3c2)CC1` [Example 643, (1r,4r)-4-(2-phenyl-1H-benzo[d]imidazole-5-sulfonamido)-N-(2-(pyridin-3-yl)ethyl)cyclohexanecarboxamide] was tested. Which IC50 did it give?
The IC50 was 283 nM.

How did the IC50 turn out when `O=C(NCc1cc(F)cc(F)c1)[C@H]1CC[C@H](NS(=O)(=O)c2ccc3[nH]c(-c4ccccc4)nc3c2)CC1` [Example 644, (1r,4r)-N-(3,5-difluorobenzyl)-4-(2-phenyl-1H-benzo[d]imidazole-5-sulfonamido)cyclohexanecarboxamide] was run?
Its IC50 is 588 nM.

Which IC50 does the source give for `O=C(Nc1cccc2ccccc12)[C@H]1CC[C@H](NS(=O)(=O)c2ccc3[nH]c(-c4ccccc4)nc3c2)CC1` [Example 645, (1r,4r)-N-(naphthalen-1-yl)-4-(2-phenyl-1H-benzo[d]imidazole-5-sulfonamido)cyclohexanecarboxamide] here?
The IC50 was 1060 nM.

For `O=C(Nc1cc(F)cc(F)c1)[C@H]1CC[C@H](NS(=O)(=O)c2ccc3[nH]c(-c4ccccc4)nc3c2)CC1` [Example 646, (1r,4r)-N-(3,5-difluorophenyl)-4-(2-phenyl-1H-benzo[d]imidazole-5-sulfonamido)cyclohexanecarboxamide], which IC50 is on record?
Its IC50 is 1340 nM.

`O=C(Nc1ccc2ncccc2c1)[C@H]1CC[C@H](NS(=O)(=O)c2ccc3[nH]c(-c4ccccc4)nc3c2)CC1` [Example 647, (1r,4r)-4-(2-phenyl-1H-benzo[d]imidazole-5-sulfonamido)-N-(quinolin-6-yl)cyclohexanecarboxamide] was tested. Which IC50 did it give?
The IC50 was 726 nM.

Which IC50 does the source give for `O=C(Nc1cccc(C(F)(F)F)c1)[C@H]1CC[C@H](NS(=O)(=O)c2ccc3[nH]c(-c4ccccc4)nc3c2)CC1` [Example 648, (1r,4r)-4-(2-phenyl-1H-benzo[d]imidazole-5-sulfonamido)-N-(3-(trifluoromethyl)phenyl)cyclohexanecarboxamide] here?
Its IC50 is 1840 nM.

With `O=C(Nc1cccnc1)[C@H]1CC[C@H](NS(=O)(=O)c2ccc3[nH]c(-c4ccccc4)nc3c2)CC1` [Example 649, (1r,4r)-4-(2-phenyl-1H-benzo[d]imidazole-5-sulfonamido)-N-(pyridin-3-yl)cyclohexanecarboxamide] as the compound, how does the IC50 read?
The IC50 was 387 nM.

`O=C([C@H]1CC[C@H](NS(=O)(=O)c2ccc3[nH]c(-c4ccccc4)nc3c2)CC1)N1CCOCC1` [Example 650, N-((1r,4r)-4-(morpholine-4-carbonyl)cyclohexyl)-2-phenyl-1H-benzo[d]imidazole-5-sulfonamide] was tested. Which IC50 did it give?
Its IC50 is 304 nM.

For `CC(C)(C)c1nnc([C@H]2CC[C@H](NS(=O)(=O)c3ccc4[nH]c(C5CC5)nc4c3)CC2)o1` [Example 651, N-((1r,4r)-4-(5-tert-butyl-1,3,4-oxadiazol-2-yl)cyclohexyl)-2-cyclopropyl-1H-benzo[d]imidazole-5-sulfonamide], which IC50 is on record?
The IC50 was 6350 nM.

With `COC(=O)c1ccc(-c2nc3cc(S(=O)(=O)N[C@H]4CC[C@H](c5nnc(C(C)(C)C)o5)CC4)ccc3[nH]2)cc1` [Example 652, methyl 4-(5-(N-((1r,4r)-4-(5-tert-butyl-1,3,4-oxadiazol-2-yl)cyclohexyl)sulfamoyl)-1H-benzo[d]imidazol-2-yl)benzoate] as the compound, how does the IC50 read?
Its IC50 is 869 nM.
